Test results as given in paper PMC10763615, “Identification and engineering of potent cyclic peptides with selective or promiscuous binding through biochemical profiling and bioinformatic data analysis” (RSC Chemical Biology, 2023).
Read-outs that look alike come from different tables or passages of the source. Positions of bridges follow the written chain, without caps; N, C: chain ends. Residues, ends and D or L forms follow the SMILES beside them.

Assays:
Type in all cases: binding
FGF-R4 ECD = target: T1, FGF-R4 ECD (Homo sapiens, UniProt P22455); experiment: single concentration BLI of crude peptides; details: read-out: KD (4)
T1 construct: DNA constructs for the extracellular domain (ECD) of human FGF-; HPC4 (C); made in house; host or cells: HEK 293-6E
T1 sequence (P22455 22-369 limits assumed): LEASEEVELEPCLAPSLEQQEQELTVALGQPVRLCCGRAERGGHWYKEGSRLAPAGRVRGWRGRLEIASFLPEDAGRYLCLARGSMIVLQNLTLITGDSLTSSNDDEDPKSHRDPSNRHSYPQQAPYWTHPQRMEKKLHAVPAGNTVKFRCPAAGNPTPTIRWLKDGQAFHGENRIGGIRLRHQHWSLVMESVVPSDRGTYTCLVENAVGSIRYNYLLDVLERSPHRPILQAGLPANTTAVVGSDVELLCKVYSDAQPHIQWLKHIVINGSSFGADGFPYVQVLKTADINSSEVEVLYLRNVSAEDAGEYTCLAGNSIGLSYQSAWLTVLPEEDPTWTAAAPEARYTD
Outline: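 Streptavidin biosensors carrying biotinylated FGF receptor ECD were immersed in peptide (~1 μM for crude single-point runs, a concentration series for purified peptides) and then in peptide-free buffer. KD was obtained by fitting the BLI association and dissociation curves.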

FGF-R1C ECD = target: T2, FGF-R1C ECD (Homo sapiens, UniProt P11362); experiment: biochemical; design: DNA constructs for the extracellular domain (ECD) of human FGF-; HPC4 (C); made in house; host or cells: HEK 293-6E
T2 sequence (P11362 22-376 limits assumed): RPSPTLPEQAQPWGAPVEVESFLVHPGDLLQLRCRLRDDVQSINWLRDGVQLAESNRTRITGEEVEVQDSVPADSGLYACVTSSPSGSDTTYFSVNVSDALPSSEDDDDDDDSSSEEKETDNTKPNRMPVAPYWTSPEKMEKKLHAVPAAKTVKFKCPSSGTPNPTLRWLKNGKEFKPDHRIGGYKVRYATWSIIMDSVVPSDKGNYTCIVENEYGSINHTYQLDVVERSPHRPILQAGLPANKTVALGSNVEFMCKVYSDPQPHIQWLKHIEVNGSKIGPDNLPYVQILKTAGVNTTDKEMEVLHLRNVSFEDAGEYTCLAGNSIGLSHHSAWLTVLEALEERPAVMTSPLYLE
Outline: (§1)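 BLI, streptavidin sensors loaded with biotinylated receptor ECD. Single-point: ~1 μM crude peptide, PBS pH7.4/0.05% Tween-20/0.01% BSA; association then dissociation in buffer. KD corrected for UPLC-CAD-determined concentration.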

FGF-R3C ECD = target: T3, FGF-R3C ECD (Homo sapiens, UniProt P22607); experiment: biochemical; design: DNA constructs for the extracellular domain (ECD) of human FGF-; HPC4 (C); made in house; host or cells: HEK 293-6E
T3 sequence (P22607 23-375 limits assumed): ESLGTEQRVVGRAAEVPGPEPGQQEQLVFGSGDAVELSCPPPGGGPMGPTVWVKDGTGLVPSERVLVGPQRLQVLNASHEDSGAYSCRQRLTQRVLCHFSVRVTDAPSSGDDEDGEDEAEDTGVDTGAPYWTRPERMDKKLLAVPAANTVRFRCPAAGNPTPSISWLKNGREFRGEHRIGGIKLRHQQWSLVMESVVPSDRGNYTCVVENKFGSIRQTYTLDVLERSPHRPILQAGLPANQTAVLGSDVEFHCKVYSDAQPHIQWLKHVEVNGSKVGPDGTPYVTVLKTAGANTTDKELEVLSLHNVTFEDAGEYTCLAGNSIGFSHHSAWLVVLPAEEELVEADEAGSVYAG
Outline: as §1

[1] = crude T18 selection 1 (1:1:1) peptides, single concentration BLI (Table S4)
[2] = crude NNK peptides, single concentration BLI (Table S3)

CSCC[C@H](NC(C)=O)C(=O)N[C@H]1CSSC[C@@H](C(=O)NCC(=O)N[C@@H](CO)C(=O)NCC(=O)N[C@@H](CO)C(=O)N[C@@H](CC(=O)O)C(=O)N[C@@H](Cc2ccc(O)cc2)C(=O)N[C@@H](CCCCN)C(=O)N[C@@H](CC(=O)O)C(=O)N[C@@H](CC(=O)O)C(=O)N[C@@H](CC(=O)O)C(=O)N[C@@H](CC(=O)O)C(=O)N[C@@H](CCCCN)C(N)=O)NC(=O)[C@H](CCCNC(=N)N)NC(=O)[C@H](Cc2c[nH]cn2)NC(=O)[C@H](Cc2ccccc2)NC(=O)[C@H](CC(C)C)NC(=O)[C@H](CCCCN)NC(=O)[C@H](Cc2ccc(O)cc2)NC(=O)[C@H](Cc2ccc(O)cc2)NC(=O)[C@H](Cc2ccc(O)cc2)NC(=O)[C@H](C(C)C)NC(=O)[C@H](Cc2ccc(O)cc2)NC(=O)[C@H]([C@@H](C)O)NC1=O (Ac-MCTYVYYYKLFHRCGSGSDYKDDDDK-NH2; disulfide 2-14)
Kd (FGF-R4 ECD; [1]): 0.003 µM | Kd (FGF-R1C ECD): > 10 µM | Kd (FGF-R3C ECD): > 10 µM

CSCC[C@H](NC(C)=O)C(=O)N[C@H]1CSSC[C@@H](C(=O)NCC(=O)N[C@@H](CO)C(=O)NCC(=O)N[C@@H](CO)C(=O)N[C@@H](CC(=O)O)C(=O)N[C@@H](Cc2ccc(O)cc2)C(=O)N[C@@H](CCCCN)C(=O)N[C@@H](CC(=O)O)C(=O)N[C@@H](CC(=O)O)C(=O)N[C@@H](CC(=O)O)C(=O)N[C@@H](CC(=O)O)C(=O)N[C@@H](CCCCN)C(N)=O)NC(=O)[C@H](CCC(N)=O)NC(=O)[C@H](Cc2c[nH]cn2)NC(=O)[C@H](Cc2c[nH]c3ccccc23)NC(=O)[C@H](CC(C)C)NC(=O)[C@H](C)NC(=O)[C@H](CCC(=O)O)NC(=O)[C@H](Cc2ccc(O)cc2)NC(=O)[C@@H]2CCCN2C(=O)[C@H](Cc2c[nH]cn2)NC(=O)[C@H](CCCNC(=N)N)NC(=O)[C@H]([C@@H](C)O)NC(=O)[C@H](Cc2ccc(O)cc2)NC1=O (Ac-MCYTRHPYEALWHQCGSGSDYKDDDDK-NH2; disulfide 2-15)
Kd (FGF-R4 ECD; [1]): > 10 µM | Kd (FGF-R1C ECD): > 10 µM | Kd (FGF-R3C ECD): > 10 µM

CSCC[C@H](NC(C)=O)C(=O)N[C@H]1CSSC[C@@H](C(=O)NCC(=O)N[C@@H](CO)C(=O)NCC(=O)N[C@@H](CO)C(=O)N[C@@H](CC(=O)O)C(=O)N[C@@H](Cc2ccc(O)cc2)C(=O)N[C@@H](CCCCN)C(=O)N[C@@H](CC(=O)O)C(=O)N[C@@H](CC(=O)O)C(=O)N[C@@H](CC(=O)O)C(=O)N[C@@H](CC(=O)O)C(=O)N[C@@H](CCCCN)C(N)=O)NC(=O)[C@@H]2CCCN2C(=O)[C@H](Cc2ccc(O)cc2)NC(=O)[C@H](Cc2c[nH]c3ccccc23)NC(=O)[C@H](Cc2ccc(O)cc2)NC(=O)[C@H](CC(N)=O)NC(=O)[C@H](CO)NC(=O)[C@H](Cc2c[nH]c3ccccc23)NC(=O)[C@H](CCCNC(=N)N)NC(=O)[C@H](CO)NC(=O)[C@H](CCCNC(=N)N)NC(=O)[C@H](CCC(N)=O)NC(=O)[C@H](CCC(=O)O)NC1=O (Ac-MCEQRSRWSNYWYPCGSGSDYKDDDDK-NH2; disulfide 2-15)
Kd (FGF-R4 ECD; [1]): > 10 µM | Kd (FGF-R1C ECD): > 10 µM | Kd (FGF-R3C ECD): > 10 µM

CC[C@H](C)[C@@H]1NC(=O)[C@H](Cc2ccccc2)NC(=O)[C@@H]2CCCN2C(=O)[C@H](Cc2ccccc2)NC(=O)[C@H](Cc2c[nH]cn2)NC(=O)[C@H]([C@@H](C)O)NC(=O)[C@H](CC(=O)O)NC(=O)[C@H](Cc2ccccc2)NC(=O)[C@H]([C@@H](C)O)NC(=O)[C@@H](NC(=O)[C@@H](N)CCSC)CSSC[C@@H](C(=O)NCC(=O)N[C@@H](CO)C(=O)NCC(=O)N[C@@H](CO)C(=O)N[C@@H](CC(=O)O)C(=O)N[C@@H](Cc2ccc(O)cc2)C(=O)N[C@@H](CCCCN)C(=O)N[C@@H](CC(=O)O)C(=O)N[C@@H](CC(=O)O)C(=O)N[C@@H](CC(=O)O)C(=O)N[C@@H](CC(=O)O)C(=O)N[C@@H](CCCCN)C(N)=O)NC(=O)[C@H]([C@@H](C)O)NC1=O (H-MCTFDTHFPFITCGSGSDYKDDDDK-NH2; disulfide 2-13)
Kd (FGF-R4 ECD; [2]): > 10 µM | Kd (FGF-R1C ECD): > 10 µM | Kd (FGF-R3C ECD): 0.287 µM

CSCC[C@H](NC(C)=O)C(=O)N[C@H]1CSSC[C@@H](C(=O)NCC(=O)N[C@@H](CO)C(=O)NCC(=O)N[C@@H](CO)C(=O)N[C@@H](CC(=O)O)C(=O)N[C@@H](Cc2ccc(O)cc2)C(=O)N[C@@H](CCCCN)C(=O)N[C@@H](CC(=O)O)C(=O)N[C@@H](CC(=O)O)C(=O)N[C@@H](CC(=O)O)C(=O)N[C@@H](CC(=O)O)C(=O)N[C@@H](CCCCN)C(N)=O)NC(=O)[C@H](CCC(N)=O)NC(=O)[C@H](CCCCN)NC(=O)[C@H](Cc2ccc(O)cc2)NC(=O)[C@H](C(C)C)NC(=O)[C@H]([C@@H](C)O)NC(=O)[C@H](Cc2c[nH]c3ccccc23)NC(=O)[C@H](Cc2ccc(O)cc2)NC(=O)[C@H](CCCCN)NC(=O)[C@H](C(C)C)NC(=O)[C@H](Cc2c[nH]c3ccccc23)NC1=O (Ac-MCWVKYWTVYKQCGSGSDYKDDDDK-NH2; disulfide 2-13)
Kd (FGF-R4 ECD; [2]): 0.207 µM | Kd (FGF-R1C ECD): > 10 µM | Kd (FGF-R3C ECD): > 10 µM

CSCC[C@H](NC(C)=O)C(=O)N[C@H]1CSSC[C@@H](C(=O)NCC(=O)N[C@@H](CO)C(=O)NCC(=O)N[C@@H](CO)C(=O)N[C@@H](CC(=O)O)C(=O)N[C@@H](Cc2ccc(O)cc2)C(=O)N[C@@H](CCCCN)C(=O)N[C@@H](CC(=O)O)C(=O)N[C@@H](CC(=O)O)C(=O)N[C@@H](CC(=O)O)C(=O)N[C@@H](CC(=O)O)C(=O)N[C@@H](CCCCN)C(N)=O)NC(=O)[C@H](Cc2c[nH]cn2)NC(=O)[C@H](Cc2c[nH]cn2)NC(=O)[C@H](Cc2ccccc2)NC(=O)[C@H](CC(C)C)NC(=O)[C@H](CC(C)C)NC(=O)[C@H](Cc2ccc(O)cc2)NC(=O)[C@H](Cc2ccc(O)cc2)NC(=O)[C@H](Cc2ccccc2)NC(=O)[C@H](CC(C)C)NC(=O)[C@H](CC(=O)O)NC(=O)[C@H](CCC(=O)O)NC1=O (Ac-MCEDLFYYLLFHHCGSGSDYKDDDDK-NH2; disulfide 2-14)
Kd (FGF-R4 ECD; [1]): 0.081 µM | Kd (FGF-R1C ECD): 4.54 µM | Kd (FGF-R3C ECD): > 10 µM

CC[C@H](C)[C@@H]1NC(=O)[C@H](Cc2ccc(O)cc2)NC(=O)[C@H](CCCCN)NC(=O)[C@H](C(C)C)NC(=O)[C@@H](NC(=O)[C@H](CCSC)NC(C)=O)CSSC[C@@H](C(=O)NCC(=O)N[C@@H](CO)C(=O)NCC(=O)N[C@@H](CO)C(=O)N[C@@H](CC(=O)O)C(=O)N[C@@H](Cc2ccc(O)cc2)C(=O)N[C@@H](CCCCN)C(=O)N[C@@H](CC(=O)O)C(=O)N[C@@H](CC(=O)O)C(=O)N[C@@H](CC(=O)O)C(=O)N[C@@H](CC(=O)O)C(=O)N[C@@H](CCCCN)C(N)=O)NC(=O)[C@H](Cc2c[nH]cn2)NC(=O)[C@H](Cc2ccccc2)NC(=O)[C@H](C(C)C)NC(=O)[C@H](CO)NC(=O)[C@H](Cc2c[nH]c3ccccc23)NC(=O)[C@H](Cc2ccc(O)cc2)NC(=O)[C@H](CCCCN)NC1=O (Ac-MCVKYIKYWSVFHCGSGSDYKDDDDK-NH2; disulfide 2-14)
Kd (FGF-R4 ECD; [1]): 0.017 µM | Kd (FGF-R1C ECD): > 10 µM | Kd (FGF-R3C ECD): > 10 µM

CSCC[C@H](N)C(=O)N[C@H]1CSSC[C@@H](C(=O)NCC(=O)N[C@@H](CO)C(=O)NCC(=O)N[C@@H](CO)C(=O)N[C@@H](CC(=O)O)C(=O)N[C@@H](Cc2ccc(O)cc2)C(=O)N[C@@H](CCCCN)C(=O)N[C@@H](CC(=O)O)C(=O)N[C@@H](CC(=O)O)C(=O)N[C@@H](CC(=O)O)C(=O)N[C@@H](CC(=O)O)C(=O)N[C@@H](CCCCN)C(N)=O)NC(=O)[C@H](CC(C)C)NC(=O)[C@H](C(C)C)NC(=O)[C@H](Cc2ccccc2)NC(=O)[C@@H]2CCCN2C(=O)[C@H](CC(C)C)NC(=O)[C@H](Cc2ccccc2)NC(=O)[C@H](CO)NC(=O)[C@H](CC(=O)O)NC(=O)[C@H](Cc2ccccc2)NC(=O)[C@H](C(C)C)NC1=O (H-MCVFDSFLPFVLCGSGSDYKDDDDK-NH2; disulfide 2-13)
Kd (FGF-R4 ECD; [2]): > 10 µM | Kd (FGF-R1C ECD): > 10 µM | Kd (FGF-R3C ECD): 0.06 µM
